Laboratory results from patent US9708312B2, “Dihydropyrimidinoisoquinolinones and pharmaceutical compositions thereof for the treatment of inflammatory disorders (GPR84 antagonists)” (GALAPAGOS NV, priority 2012, dated 2017).

What follows are compounds tested against T1, GPR84 (Homo sapiens, UniProt Q9NQS5) (assay: GPR84 [35S]GTPγS binding assay, HEPES buffer). Settings: 3,3′ di indolylmethane at EC80, membranes from stable cell line over expressing GPR84.
T1 construct: expressed in transfected cells
T1 sequence (Q9NQS5 whole entry): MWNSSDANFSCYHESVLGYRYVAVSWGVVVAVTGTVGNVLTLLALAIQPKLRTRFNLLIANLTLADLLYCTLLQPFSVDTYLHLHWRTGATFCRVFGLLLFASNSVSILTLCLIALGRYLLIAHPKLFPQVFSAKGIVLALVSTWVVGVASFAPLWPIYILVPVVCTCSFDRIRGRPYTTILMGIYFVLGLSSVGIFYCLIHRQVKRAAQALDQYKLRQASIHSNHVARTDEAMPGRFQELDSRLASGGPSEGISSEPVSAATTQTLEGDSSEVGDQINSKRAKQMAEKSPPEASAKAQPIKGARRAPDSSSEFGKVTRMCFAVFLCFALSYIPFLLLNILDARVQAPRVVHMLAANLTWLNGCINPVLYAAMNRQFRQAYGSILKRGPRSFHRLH
Format: biochemical
Experimental: 1.1. Cell Based Assay: GTp-γ S Binding Assay.
The following assay can be used for determination of GPR84 activation.
The assay is performed in a 96 well plate where the following reagents are added. […] In a last step, 30 μL of a mixture consisting of membranes-GTPγS-SpA beads is added [mixture consists of 20 μg/well membranes derived from stable cell line over expressing GPR84 (membranes are pre-incubated with 0.1 μM GDP for 15 min at 4° C.), 0.1 nM [^35S]GTPγS (Perkin Elmer, NEG030) and 0.5 mg/well PVT-WGA SpA beads (Perkin Elmer, RPNQ0001)]. All components are diluted in assay buffer containing 20 mM HEPES pH 7.4; 5 mM MgCl2; 250 mM NaCl; 0.05% BSA; 75 ug/mL saponin Reactions are incubated for 90 min at room temperature followed by centrifugation at 2000 rpm during 15 min. Plates are read on a Topcount reader (Perkin Elmer) immediately after centrifugation (readout time, 1 min/well).

Row | Compound | IC50 [nM]
1 | CN1CCCC1CCOc1ccc2c(c1)CCn1c-2cc(OCC2COc3ncccc3O2)nc1=O (stereo not shown) [compound 92, 2-(2,3-dihydro-[1,4]dioxino[2,3-b]pyridin-2-ylmethoxy)-9-[2-(1-methyl-pyrrolidin-2-yl)-ethoxy]-6,7-dihydro-pyrimido[6,1-a]isoquinolin-4-one] | 100 to 500
2 | O=c1nc(OCC2CCCO2)cc2n1CCc1cc(-c3cccnc3)ccc1-2 (stereo not shown) [compound 94, 9-pyridin-3-yl-2-(tetrahydro-furan-2-ylmethoxy)-6,7-dihydro-pyrimido[6,1-a]isoquinolin-4-one] | 500 to 1000
3 | N#Cc1cccc(-c2ccc3c(c2)CCn2c-3cc(OCC3CCCO3)nc2=O)c1 (stereo not shown) [compound 95, 3-[4-Oxo-2-(tetrahydro-furan-2-ylmethoxy)-6,7-dihydro-4H-pyrimido[6,1-a]isoquinolin-9-yl]-benzonitrile] | 100 to 500
4 | O=c1nc(OCC2CCCO2)cc2n1CCc1cc(-c3ccccc3)ccc1-2 (stereo not shown) [compound 96, 9-phenyl-2-(tetrahydro-furan-2-ylmethoxy)-6,7-dihydro-pyrimido[6,1-a]isoquinolin-4-one] | 100 to 500
5 | O=c1nc(OCC2COc3ncccc3O2)cc2n1CCc1cc(-c3ccncc3)ccc1-2 (stereo not shown) [compound 97, 2-(2,3-dihydro-[1,4]dioxino[2,3-b]pyridin-2-ylmethoxy)-9-pyridin-4-yl-6,7-dihydro-pyrimido[6,1-a]isoquinolin-4-one] | 0.01 to 100
6 | N#Cc1cccc(-c2ccc3c(c2)CCn2c-3cc(OCC3COc4ncccc4O3)nc2=O)c1 (stereo not shown) [compound 98, 3-[2-(2,3-dihydro-[1,4]dioxino[2,3-b]pyridin-2-ylmethoxy)-4-oxo-6,7-dihydro-4H-pyrimido[6,1-a]isoquinolin-9-yl]-benzonitrile] | 0.01 to 100
7 | COc1ccccc1-c1ccc2c(c1)CCn1c-2cc(OCC2CCCO2)nc1=O (stereo not shown) [compound 99, 9-(2-methoxy-phenyl)-2-(tetrahydro-furan-2-ylmethoxy)-6,7-dihydro-pyrimido[6,1-a]isoquinolin-4-one] | 100 to 500
8 | COc1cccc(-c2ccc3c(c2)CCn2c-3cc(OCC3CCCO3)nc2=O)c1 (stereo not shown) [compound 100, 9-(3-methoxy-phenyl)-2-(tetrahydro-furan-2-ylmethoxy)-6,7-dihydro-pyrimido[6,1-a]isoquinolin-4-one] | 100 to 500
9 | COc1ccc(-c2ccc3c(c2)CCn2c-3cc(OCC3CCCO3)nc2=O)cc1 (stereo not shown) [compound 101, 9-(4-methoxy-phenyl)-2-(tetrahydro-furan-2-ylmethoxy)-6,7-dihydro-pyrimido[6,1-a]isoquinolin-4-one] | 100 to 500
10 | O=C(O)c1cccc(-c2ccc3c(c2)CCn2c-3cc(OCC3CCCO3)nc2=O)c1 (stereo not shown) [compound 103, 3-[4-oxo-2-(tetrahydro-furan-2-ylmethoxy)-6,7-dihydro-4H-pyrimido[6,1-a]isoquinolin-9-yl]-benzoic acid] | 500 to 1000
11 | CN(C)c1ccc(-c2ccc3c(c2)CCn2c-3cc(OCC3CCCO3)nc2=O)cc1 (stereo not shown) [compound 105, 9-(4-dimethylamino-phenyl)-2-(tetrahydro-furan-2-ylmethoxy)-6,7-dihydro-pyrimido[6,1-a]isoquinolin-4-one] | 100 to 500
12 | NC(=O)c1ccc(-c2ccc3c(c2)CCn2c-3cc(OCC3CCCO3)nc2=O)cc1 (stereo not shown) [compound 106, 4-[4-oxo-2-(tetrahydro-furan-2-ylmethoxy)-6,7-dihydro-4H-pyrimido[6,1-a]isoquinolin-9-yl]-benzamide] | 100 to 500
13 | N#Cc1ccccc1-c1ccc2c(c1)CCn1c-2cc(OCC2CCCO2)nc1=O (stereo not shown) [compound 107, 2-[4-oxo-2-(tetrahydro-furan-2-ylmethoxy)-6,7-dihydro-4H-pyrimido[6,1-a]isoquinolin-9-yl]-benzonitrile] | 500 to 1000
14 | COc1cncc(-c2ccc3c(c2)CCn2c-3cc(OCC3COc4ncccc4O3)nc2=O)c1 (stereo not shown) [compound 140, 2-(2,3-dihydro-[1,4]dioxino[2,3-b]pyridin-2-ylmethoxy)-9-(5-methoxy-pyridin-3-yl)-6,7-dihydro-pyrimido[6,1-a]isoquinolin-4-one] | 0.01 to 100
15 | O=c1nc(OCC2COc3ncccc3O2)cc2n1CCc1cc(C#CC3CC3)ccc1-2 (stereo not shown) [compound 141, 9-cyclopropylethynyl-2-(2,3-dihydro-[1,4]dioxino[2,3-b]pyridin-2-ylmethoxy)-6,7-dihydro-pyrimido[6,1-a]isoquinolin-4-one] | 0.01 to 100
16 | COc1ncccc1-c1ccc2c(c1)CCn1c-2cc(OCC2COc3ncccc3O2)nc1=O (stereo not shown) [compound 145, 2-(2,3-dihydro-[1,4]dioxino[2,3-b]pyridin-2-ylmethoxy)-9-(2-methoxy-pyridin-3-yl)-6,7-dihydro-pyrimido[6,1-a]isoquinolin-4-one] | 0.01 to 100

Row | Compound | IC50 [nM]
17 | O=c1nc(OCC2COc3ncccc3O2)cc2n1CCc1ccccc1-2 (stereo not shown) [compound 146, 2-(2,3-dihydro-[1,4]dioxino[2,3-b]pyridin-2-ylmethoxy)-6,7-dihydro-pyrimido[6,1-a]isoquinolin-4-one] | 0.01 to 100
18 | CNC(=O)c1ccc(-c2ccc3c(c2)CCn2c-3cc(OCC3COc4ncccc4O3)nc2=O)cn1 (stereo not shown) [compound 147, 5-[2-(2,3-dihydro-[1,4]dioxino[2,3-b]pyridin-2-ylmethoxy)-4-oxo-6,7-dihydro-4H-pyrimido[6,1-a]isoquinolin-9-yl]-pyridine-2-carboxylic acid methylamide] | 0.01 to 100
19 | O=c1nc(OCC2COc3ncccc3O2)cc2n1CCc1cc(-c3ccoc3)ccc1-2 (stereo not shown) [compound 148, 2-(2,3-dihydro-[1,4]dioxino[2,3-b]pyridin-2-ylmethoxy)-9-furan-3-yl-6,7-dihydro-pyrimido[6,1-a]isoquinolin-4-one] | 0.01 to 100
20 | Cn1cc(-c2ccc3c(c2)CCn2c-3cc(OCC3COc4ncccc4O3)nc2=O)cn1 (stereo not shown) [compound 149, 2-(2,3-dihydro-[1,4]dioxino[2,3-b]pyridin-2-ylmethoxy)-9-(1-methyl-1H-pyrazol-4-yl)-6,7-dihydro-pyrimido[6,1-a]isoquinolin-4-one] | 0.01 to 100
21 | O=c1nc(OCC2COc3ncccc3O2)cc2n1CCc1cc(CN3CCOCC3)ccc1-2 (stereo not shown) [compound 150, 2-(2,3-dihydro-[1,4]dioxino[2,3-b]pyridin-2-ylmethoxy)-9-morpholin-4-ylmethyl-6,7-dihydro-pyrimido[6,1-a]isoquinolin-4-one] | 0.01 to 100
22 | N#CCNc1ccc2c(c1)CCn1c-2cc(OCC2COc3ncccc3O2)nc1=O (stereo not shown) [compound 151, [2-(2,3-dihydro-[1,4]dioxino[2,3-b]pyridin-2-ylmethoxy)-4-oxo-6,7-dihydro-4H-pyrimido[6,1-a]isoquinolin-9-ylamino]-acetonitrile] | 100 to 500
23 | N#Cc1ccc2c(c1)CCn1c-2cc(OCC2COc3ncccc3O2)nc1=O (stereo not shown) [compound 152, 2-(2,3-dihydro-[1,4]dioxino[2,3-b]pyridin-2-ylmethoxy)-4-oxo-6,7-dihydro-4H-pyrimido[6,1-a]isoquinoline-9-carbonitrile] | 100 to 500
24 | O=c1nc(OCC2COc3ncccc3O2)cc2n1CCc1cc(NCc3ncco3)ccc1-2 (stereo not shown) [compound 153, 2-(2,3-dihydro-[1,4]dioxino[2,3-b]pyridin-2-ylmethoxy)-9-[(oxazol-2-ylmethyl)-amino]-6,7-dihydro-pyrimido[6,1-a]isoquinolin-4-one] | 0.01 to 100
25 | Cc1nc(COc2ccc3c(c2)CCn2c-3cc(OCC3COc4ncccc4O3)nc2=O)no1 (stereo not shown) [compound 154, 2-(2,3-dihydro-[1,4]dioxino[2,3-b]pyridin-2-ylmethoxy)-9-(5-methyl-[1,2,4]oxadiazol-3-ylmethoxy)-6,7-dihydro-pyrimido[6,1-a]isoquinolin-4-one] | 0.01 to 100
26 | CCc1nc(COc2ccc3c(c2)CCn2c-3cc(OCC3COc4ncccc4O3)nc2=O)no1 (stereo not shown) [compound 155, 2-(2,3-dihydro-[1,4]dioxino[2,3-b]pyridin-2-ylmethoxy)-9-(5-ethyl-[1,2,4]oxadiazol-3-ylmethoxy)-6,7-dihydro-pyrimido[6,1-a]isoquinolin-4-one] | 0.01 to 100
27 | O=c1nc(OCC2COc3ncccc3O2)cc2n1CCc1cc(OCc3noc(C4CC4)n3)ccc1-2 (stereo not shown) [compound 156, 9-(5-cyclopropyl-[1,2,4]oxadiazol-3-ylmethoxy)-2-(2,3-dihydro-[1,4]dioxino[2,3-b]pyridin-2-ylmethoxy)-6,7-dihydro-pyrimido[6,1-a]isoquinolin-4-one] | 0.01 to 100
28 | CC(C)c1nc(COc2ccc3c(c2)CCn2c-3cc(OCC3COc4ncccc4O3)nc2=O)no1 (stereo not shown) [compound 157, 2-(2,3-dihydro-[1,4]dioxino[2,3-b]pyridin-2-ylmethoxy)-9-(5-isopropyl-[1,2,4]oxadiazol-3-ylmethoxy)-6,7-dihydro-pyrimido[6,1-a]isoquinolin-4-one] | 0.01 to 100
29 | CC(C)(C)c1nc(COc2ccc3c(c2)CCn2c-3cc(OCC3COc4ncccc4O3)nc2=O)no1 (stereo not shown) [compound 158, 9-(5-tert-Butyl-[1,2,4]oxadiazol-3-ylmethoxy)-2-(2,3-dihydro-[1,4]dioxino[2,3-b]pyridin-2-ylmethoxy)-6,7-dihydro-pyrimido[6,1-a]isoquinolin-4-one] | 0.01 to 100
30 | Cc1cc(COc2ccc3c(c2)CCn2c-3cc(OCC3COc4ncccc4O3)nc2=O)on1 (stereo not shown) [compound 159, 2-(2,3-dihydro-[1,4]dioxino[2,3-b]pyridin-2-ylmethoxy)-9-(3-methyl-isoxazol-5-ylmethoxy)-6,7-dihydro-pyrimido[6,1-a]isoquinolin-4-one] | 0.01 to 100
31 | COc1nccc(-c2ccc3c(c2)CCn2c-3cc(OCC3COc4ncccc4O3)nc2=O)c1Cl (stereo not shown) [compound 160, 9-(3-chloro-2-methoxy-pyridin-4-yl)-2-(2,3-dihydro-[1,4]dioxino[2,3-b]pyridin-2-ylmethoxy)-6,7-dihydro-pyrimido[6,1-a]isoquinolin-4-one] | 0.01 to 100
